US20230218624A1 (Urovant Sciences GmbH, priority 2017, published 2023)
Several values for one entry are separate records, joined by “and”; a condition that tells them apart may be missing. Equal entries are not always repeated. Marks after values point to notes of the source that are not given here.

Key:
healthy subjects = assay: Phase 1 safety data; format: in vivo
Experimental: (§1) Exposure, and therefore risk of adverse-events can be further reduced with a 50 mg dose.

[1] = Drug interaction study of vibegron 75 mg and rifampin; format: in vivo, human
[2] = PK in patients with renal impairment; details: for AUC0-inf, geometric least squares mean / Apparent terminal t1/2, geometric mean (% geometric CV) / CL/F, geometric least squares mean / CLR, geometric mean (% geometric CV) / Cmax, geometric least squares mean / Fe[urine]48 hr, geometric mean (% geometric CV) / Tmax (median): single dose 100 mg
From the text: The relationship between clearance and renal function was modeled using linear regression.

patients with OAB = assay: Phase 3 open-label 52-week study in OAB; format: in vivo, human; details: 50 mg or 100 mg once daily, 52-week treatment period
Experimental: (§2) After eight weeks, the dose could be increased to 100 mg once daily as clinically indicated.

β1-AR = target: T1, β1-AR (Homo sapiens, UniProt P08588); assay: Competition binding assay, membranes with recombinant β1-AR
T1 construct: expressed in transfected cells; membranes prepared from them
T1 sequence (P08588 whole entry): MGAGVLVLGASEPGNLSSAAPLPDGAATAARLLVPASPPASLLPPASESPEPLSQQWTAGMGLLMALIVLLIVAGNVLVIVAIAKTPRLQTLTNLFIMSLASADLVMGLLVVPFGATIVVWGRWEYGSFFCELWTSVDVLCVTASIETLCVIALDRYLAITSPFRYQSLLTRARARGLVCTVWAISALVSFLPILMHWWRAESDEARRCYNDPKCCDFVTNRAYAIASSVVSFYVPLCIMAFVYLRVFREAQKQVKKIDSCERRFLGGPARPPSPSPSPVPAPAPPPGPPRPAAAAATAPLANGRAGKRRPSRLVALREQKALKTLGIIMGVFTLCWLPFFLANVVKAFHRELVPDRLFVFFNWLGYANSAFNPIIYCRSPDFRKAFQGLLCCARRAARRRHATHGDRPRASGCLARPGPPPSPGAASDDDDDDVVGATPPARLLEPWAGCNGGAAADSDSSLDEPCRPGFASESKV

β2-AR = β2-AR (Homo sapiens, UniProt P07550); assay: Competition binding assay, membranes with recombinant β2-AR
Chain of β2-AR (P07550 whole entry): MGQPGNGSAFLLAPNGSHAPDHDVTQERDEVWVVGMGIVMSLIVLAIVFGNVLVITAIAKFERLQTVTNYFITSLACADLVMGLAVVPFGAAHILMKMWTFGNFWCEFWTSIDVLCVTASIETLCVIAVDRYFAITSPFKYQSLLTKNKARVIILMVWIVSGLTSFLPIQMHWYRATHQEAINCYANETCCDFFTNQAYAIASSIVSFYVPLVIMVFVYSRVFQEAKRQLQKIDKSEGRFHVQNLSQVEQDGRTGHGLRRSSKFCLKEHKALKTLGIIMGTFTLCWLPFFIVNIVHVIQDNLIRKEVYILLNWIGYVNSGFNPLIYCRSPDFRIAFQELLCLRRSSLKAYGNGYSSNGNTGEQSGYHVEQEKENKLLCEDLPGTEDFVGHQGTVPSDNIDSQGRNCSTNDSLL

QTc interval = assay: Thorough QT study, single oral doses
[3] = Drug interaction: effect of co-administered medication on vibegron PK; format: in vivo, human
From the text: However, these interactions are not expected to be clinically significant.

[4] = PK in patients with moderate hepatic impairment; details: single dose 100 mg
[5] = Dose-Cmax and dose-AUC models and simulations from Phase 1 data; design: species or system human
Experimental: as §1

[6] = Single rising oral dose Phase 1 pharmacokinetics; format: in vivo, human
Experimental: The steady state AUC geometric mean accumulation ratios were ˜2 in young male subjects and ˜2.8 in elderly subjects (male and female).
All subjects were healthy adults. […] Systemic exposures were greater than dose proportional up to 600 mg.

[7] = human, in vivo
[8] = tested on: males and females with OAB; assay: Phase 3 12-week placebo controlled study in OAB; format: in vivo, human; details: Week 12
Experimental: as §2

[9] = Vibegron + Rifampin 600 mg QD, single dose 75 mg, healthy adults
[10] = Vibegron alone, single dose 75 mg, healthy adults
[11] = healthy matched control subjects
[12] = vibegron 100 mg single dose with multiple doses of 240 mg or 180 mg diltiazem

## O=C(Nc1ccc(C[C@@H]2CC[C@H]([C@H](O)c3ccccc3)N2)cc1)[C@@H]1CCc2nccc(=O)n21 [Vibegron, (6S)—N-[4-[[(2S,5R)-5-[(R)-hydroxy(phenyl)methyl]pyrrolidin-2-yl]methyl]phenyl]-4-oxo-7,8-dihydro-6H-pyrrolo[1,2-a]pyrimidine-6-carboxamide]
Healthy subjects; Phase 1 program, single 2 to 600 mg, multiple 25 to 400 mg
  tolerability: generally well tolerated
Healthy subjects; vibegron 100 mg coadministered in essential hypertension on metoprolol or amlodipine
  orthostatic AEs: no occurrences of orthostatic AEs
[1]; [9]
  CL/F, geometric mean (% CV): 57.3 (30.1) L/hr
  V/F, geometric mean (% CV): 6140 (47.0) L
  t1/2, geometric mean (% CV): 74.2 (25.2) h
[1]; [10]
  CL/F, geometric mean (% CV): 57.2 (39.7) L/hr
  V/F, geometric mean (% CV): 6930 (48.6) L
[1]; vibegron 75 mg and rifampin, healthy male and female subjects
  tolerability: well tolerated
[1]; vibegron 75 mg single doses and rifampin 600 mg QD, 3 of 20 subjects
  subjects with an AE related to study drug: 15%
[2]; mild renal impairment
  AUC0-inf higher than healthy matched controls: 49%
  CLR reduced compared to healthy matched controls: 39%
  Cmax higher than healthy matched controls: 96%
  Apparent terminal t1/2, geometric mean (% geometric CV): 96.2 (11.5) hr
  CL/F, geometric least squares mean: 43.6 L/h
  CLR, geometric mean (% geometric CV): 6.3 (31.1)^c L/hr
  Cmax, geometric least squares mean: 210 ng/mL
  Fe[urine]48 hr, geometric mean (% geometric CV): 8.5% and 8.5 (43.9)^c %
[2]; moderate renal impairment
  AUC0-inf higher than healthy matched controls: 106%
  CLR reduced compared to healthy matched controls: 65%
  Cmax higher than healthy matched controls: 68%
  AUC0-inf, geometric least squares mean: 3170 ng·h/mL
  Apparent terminal t1/2, geometric mean (% geometric CV): 108 (21.0) hr
  CL/F, geometric least squares mean: 31.5 L/h
  CLR, geometric mean (% geometric CV): 3.6 (34.5) L/hr
  Fe[urine]48 hr, geometric mean (% geometric CV): 5.5% and 5.5 (53.2) %
  Tmax (median): 1.3 h
[2]; severe renal impairment
  AUC0-inf higher than healthy matched controls: 83%
  CLR reduced compared to healthy matched controls: 82%
  Cmax higher than healthy matched controls: 42%
  AUC0-inf, geometric least squares mean: 2820 ng·h/mL
  Apparent terminal t1/2, geometric mean (% geometric CV): 131 (10.0) hr
  CL/F, geometric least squares mean: 35.5 L/h
  CLR, geometric mean (% geometric CV): 1.9 (30.9) L/hr
  Cmax, geometric least squares mean: 152 ng/mL
  Fe[urine]48 hr, geometric mean (% geometric CV): 2.1% and 2.1 (57.6) %
  Tmax (median): 0.5 h
[2]; [11]
  AUC0-inf, geometric least squares mean: 1540 ng·h/mL
  Apparent terminal t1/2, geometric mean (% geometric CV): 98.8 (13.9) hr
  CL/F, geometric least squares mean: 64.9 L/h
  CLR, geometric mean (% geometric CV): 10.4 (20.2) L/hr
  Cmax, geometric least squares mean: 107 ng/mL
  Fe[urine]48 hr, geometric mean (% geometric CV): 7.9% and 7.9 (43.0) %
[2]; slope of linear regression
  CL/F increase per one mL/min/1.73 m^2 increase in eGFR: ~0.8%
Patients with OAB
  long-term efficacy: reduced episodes of micturitions, UUI episodes, total incontinence episodes, and urgency episodes
β1-AR
  binding to β1-AR: does not bind
β2-AR
  binding to β2-AR: does not bind
QTc interval; single dose 200 mg
  AUC, mean ± SD: 2430 ± 974 ng·h/mL
  Maximum mean placebo corrected change from baseline RR interval: -84.36 ms
  Maximum mean placebo corrected change from baseline diastolic BP: 2.42 mmHg
  Maximum mean placebo corrected change from baseline systolic BP: 2.20 mmHg
QTc interval; single dose 200 mg, 0.5 hour
  QTcF LS mean difference from placebo: 2.90 ms
  QTcF change from baseline, LS mean: 1.90 ms
QTc interval; single dose 200 mg, 1 hour
  QTcF change from baseline, LS mean: 4.87 ms
QTc interval; single dose 200 mg, 1 hour (maximum)
  QTcF LS mean difference from placebo: 4.98 (3.07, 6.88) msec and 4.98 msec
QTc interval; single dose 200 mg, 2 hour
  QTcF LS mean difference from placebo: 2.14 ms
  QTcF change from baseline, LS mean: 2.06 ms
QTc interval; single dose 200 mg, 3 hour
  QTcF LS mean difference from placebo: 0.40 ms
  QTcF change from baseline, LS mean: 1.14 ms
QTc interval; single dose 200 mg, 4 hour
  QTcF LS mean difference from placebo: -0.83 ms
  QTcF change from baseline, LS mean: -0.40 ms
QTc interval; single dose 200 mg, 6 hour
  QTcF LS mean difference from placebo: -1.26 ms
  QTcF change from baseline, LS mean: -6.89 ms
QTc interval; single dose 200 mg, 8 hour
  QTcF LS mean difference from placebo: -1.24 ms
  QTcF change from baseline, LS mean: -9.59 ms
QTc interval; single dose 200 mg, 10 hour
  QTcF LS mean difference from placebo: -2.67 ms
  QTcF change from baseline, LS mean: -8.82 ms
QTc interval; single dose 200 mg, 12 hour
  QTcF LS mean difference from placebo: -3.72 ms
  QTcF change from baseline, LS mean: -6.82 ms
QTc interval; single dose 200 mg, 23.5 hour
  QTcF LS mean difference from placebo: 0.38 ms
  QTcF change from baseline, LS mean: -2.15 ms
QTc interval; single dose 400 mg
  Maximum mean placebo corrected change from baseline RR interval: -162.45 ms
  Maximum mean placebo corrected change from baseline diastolic BP: 3.99 mmHg
  Maximum mean placebo corrected change from baseline systolic BP: 3.97 mmHg
QTc interval; single dose 400 mg, 0.5 hour
  QTcF LS mean difference from placebo: 3.37 ms
  QTcF change from baseline, LS mean: 2.37 ms
QTc interval; single dose 400 mg, 1 hour
  QTcF change from baseline, LS mean: 4.49 ms
QTc interval; single dose 400 mg, 1 hour (maximum)
  QTcF LS mean difference from placebo: 4.60 (2.71, 6.48) msec and 4.60 msec
QTc interval; single dose 400 mg, 2 hour
  QTcF LS mean difference from placebo: 0.81 ms
  QTcF change from baseline, LS mean: 0.73 ms
QTc interval; single dose 400 mg, 3 hour
  QTcF LS mean difference from placebo: -1.04 ms
  QTcF change from baseline, LS mean: -0.30 ms
QTc interval; single dose 400 mg, 4 hour
  QTcF LS mean difference from placebo: -2.96 ms
  QTcF change from baseline, LS mean: -2.53 ms
QTc interval; single dose 400 mg, 6 hour
  QTcF LS mean difference from placebo: -2.70 ms
  QTcF change from baseline, LS mean: -8.33 ms
QTc interval; single dose 400 mg, 8 hour
  QTcF LS mean difference from placebo: -3.24 ms
  QTcF change from baseline, LS mean: -11.60 ms
QTc interval; single dose 400 mg, 10 hour
  QTcF LS mean difference from placebo: -4.14 ms
  QTcF change from baseline, LS mean: -10.29 ms
QTc interval; single dose 400 mg, 12 hour
  QTcF LS mean difference from placebo: -4.00 ms
  QTcF change from baseline, LS mean: -7.10 ms
QTc interval; single dose 400 mg, 23.5 hour
  QTcF LS mean difference from placebo: -0.34 ms
  QTcF change from baseline, LS mean: -2.87 ms
QTc interval; thorough QT study
  effect on QTc or blood pressure: no clinically meaningful effect on QTc or blood pressure
[3]; in vivo
  effect of tolterodine ER 4 mg on the pharmacokinetics of vibegron: no effect
[3]; vibegron 100 mg single dose + diltiazem ER 240 mg QD
  Cmax of vibegron, geometric mean: 167 ng/mL
[3]; [12]
  GM AUC0-inf increase: 63%
  GM Cmax increase: 68%
[3]; vibegron with diltiazem
  GM t1/2: 75.4 h
[4]; [11]
  AUC0-inf, geometric least squares mean: 1440 ng·h/mL
  CL/F, geometric mean (% geometric CV): 68.3 (36.0%) L/hr
  Cmax, geometric least squares mean: 125 ng/mL
[4]; moderate hepatic impairment
  AUC0-inf, geometric least squares mean: 1820 ng·h/mL
  Apparent terminal t1/2, geometric mean (% geometric CV): 94.5 (8.88%) hr
  CL/F, geometric mean (% geometric CV): 56.0 (31.2%) L/hr
  Cmax, geometric least squares mean: 168 ng/mL
[5]
  higher Cmax in elderly and females than healthy young males: 50-70%
[5]; dose decreased from 100 mg to 75 mg
  reduction in Cmax: ~40%
[5]; estimation
  AUC of 75 mg lower than 200 mg single dose: ~2 fold
  AUC of 75 mg lower than 400 mg single dose: ~6 fold
  Cmax of 75 mg lower than 200 mg single dose: approximately 3.3 fold
  Cmax of 75 mg lower than 400 mg single dose: ~9.2 fold
[5]; increase in dose from 50 to 100 mg
  increase in Cmax: ~3 fold
[5]; subjects receiving a potent CYP3A/P-gp inhibitor
  higher exposure: ~2 fold
[5]; subjects with moderate renal impairment
  mean increase in AUC vs normal renal function: 1.6 fold
[6]; single dose
  exposure increase, young Japanese vs non-Japanese young males: < 2 fold
[6]; single dose 50 mg, Japanese healthy young males
  t1/2 (harmonic mean ± pseudo SD): 64.4 ± 8.7 h
[6]; single dose 50 mg, elderly male and female
  t1/2 (harmonic mean ± pseudo SD): 92.1 ± 15.9 h
[6]; single dose 200 mg, healthy young males
  t1/2 (harmonic mean ± pseudo SD): 75.3 ± 9.1 h
[6]; single dose 450 mg, healthy young males
  t1/2 (harmonic mean ± pseudo SD): 60.0 ± 9.4 h
[7]
  dose recovered in feces: approximately 59%
  dose recovered in urine: ~20%
[8]; 50 mg
  Micturitions, LS mean placebo adjusted change from baseline (95% CI): −0.86 (−1.12, −0.60)
  Total incontinence episodes, LS mean placebo adjusted change from baseline (95% CI): −0.30 (−0.49, −0.12)
  Urge urinary incontinence episodes, LS mean placebo adjusted change from baseline (95% CI): −0.27 (−0.44, −0.10)
  Urgency episodes, LS mean placebo adjusted change from baseline (95% CI): −0.51 (−0.76, −0.25)
  Volume voided, LS mean placebo adjusted change from baseline (95% CI): 25.76 (20.02, 31.46) mL
[8]; 100 mg
  Micturitions, LS mean placebo adjusted change from baseline (95% CI): −0.81 (−1.07, −0.55)
  Total incontinence episodes, LS mean placebo adjusted change from baseline (95% CI): −0.43 (−0.61, −0.24)
  Urge urinary incontinence episodes, LS mean placebo adjusted change from baseline (95% CI): −0.39 (−0.55, −0.22)
  Urgency episodes, LS mean placebo adjusted change from baseline (95% CI): −0.67 (−0.93, −0.42)
  Volume voided, LS mean placebo adjusted change from baseline (95% CI): 22.16 (16.44, 27.89) mL
